# Experimental data as given in patent US10144746B2 (GLOBAL BLOOD THERAPEUTICS, INC., priority 2015, dated 2018).
# Biological target: Human plasma kallikrein (Homo sapiens (Human), UniProt P03952)
# Experiment: In vitro plasma kallikrein inhibition assay (chromogenic substrate D-Pro-Phe-Arg-pNa, absorbance at 405 nm, IC50 determination)
# Assay type: biochemical
# Conditions: read-out: KLKB1 pIC50 (converted)
# Human plasma kallikrein, sequence (P03952 391-638): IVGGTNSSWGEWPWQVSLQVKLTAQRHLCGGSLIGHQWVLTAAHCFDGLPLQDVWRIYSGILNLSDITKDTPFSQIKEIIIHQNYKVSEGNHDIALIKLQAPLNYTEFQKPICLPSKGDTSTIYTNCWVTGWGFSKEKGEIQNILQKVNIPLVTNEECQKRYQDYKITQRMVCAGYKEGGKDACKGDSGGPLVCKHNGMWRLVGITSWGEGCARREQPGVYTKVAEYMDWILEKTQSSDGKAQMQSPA
# Human plasma kallikrein, sequence (P03952 20-390 partner): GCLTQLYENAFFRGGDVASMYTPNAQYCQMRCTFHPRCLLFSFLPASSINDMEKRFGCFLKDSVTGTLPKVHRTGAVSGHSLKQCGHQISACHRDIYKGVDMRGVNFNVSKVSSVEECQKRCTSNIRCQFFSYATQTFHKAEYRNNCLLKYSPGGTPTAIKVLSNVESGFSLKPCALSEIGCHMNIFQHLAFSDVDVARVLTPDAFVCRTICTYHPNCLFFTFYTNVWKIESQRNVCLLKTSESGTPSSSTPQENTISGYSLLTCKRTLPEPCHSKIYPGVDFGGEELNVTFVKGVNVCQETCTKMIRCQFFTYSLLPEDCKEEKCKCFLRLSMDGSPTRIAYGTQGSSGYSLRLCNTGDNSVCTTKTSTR
row,IC50 [nM],SMILES
1,8.91,"Cc1cc(N)nc(C)c1CNC(=O)c1ccc2c(c1)[C@@H]1O[C@H]2c2ccc(N(C)c3cccc(Cl)c3)cc21 (single isomer, unassigned) [Example 262]"
2,2400,"COc1ccc(Cl)c(CNC(=N)c2ccc3c(c2)[C@@H]2O[C@H]3c3ccc(-c4ccc(F)cc4F)cc32)c1F (single isomer, unassigned) [Example 264]"
3,91.2,"Cc1nc(N)cc(C(C)C)c1CNC(=O)c1ccc2c(c1)[C@@H]1O[C@H]2c2ccc(-c3cc[n+]([O-])cc3F)cc21 (single isomer, unassigned) [Example 265]"
4,97.7,"Cc1nc(N)cc(C2=CCOC2)c1CNC(=O)c1ccc2c(c1)[C@@H]1O[C@H]2c2ccc(-c3ccc(F)cc3F)cc21 (single isomer, unassigned) [Example 267]"
5,5.01,"N=C(N)c1ccc(CNC(=O)c2ccc3c(c2)[C@@H]2O[C@H]3c3ccc(-c4ccc(F)cc4F)cc32)cn1 (single isomer, unassigned) [Example 268]"
6,1230,"CCOC(=O)N=C(N)c1cc(F)c(CNC(=O)c2ccc3c(c2)[C@@H]2O[C@H]3c3ccc(-c4ccc(F)cc4F)cc32)c(F)c1 (single isomer, unassigned) [Example 269]"
7,100000,"O=C(NCc1ccc(-c2noc(=O)[nH]2)cc1)c1ccc2c(c1)[C@@H]1O[C@H]2c2ccc(-c3ccc(F)cc3F)cc21 (single isomer, unassigned) [Example 270]"
8,6030,"CCOC(=O)N=C(N)c1ccc(CNC(=O)c2ccc3c(c2)[C@@H]2O[C@H]3c3ccc(-c4ccc(F)cc4F)cc32)cc1 (single isomer, unassigned) [Example 273]"
9,2,"N=C(N)c1cc(F)c(CNC(=O)c2ccc3c(c2)[C@@H]2O[C@H]3c3ccc(-c4nccs4)cc32)c(F)c1 (single isomer, unassigned) [Example 275]"
10,35.5,"CC(C)(O)c1ccc2c(c1)[C@H]1O[C@@H]2c2ccc(C(=O)NCc3ccc(C(=N)N)cc3)cc21 (single isomer, unassigned) [Example 277]"
11,34.7,"Cc1nc(N)cc(C2CC2)c1CNC(=O)c1ccc2c(c1)[C@@H]1O[C@H]2c2ccc(-c3cc[n+]([O-])cc3F)cc21 (single isomer, unassigned) [Example 278]"
12,22.9,"Cc1ccc(C(=O)c2ccc3c(c2)[C@H]2O[C@@H]3c3ccc(C(=O)NCc4c(C)cc(N)nc4C)cc32)o1 (single isomer, unassigned) [Example 279]"
13,0.759,"N=C(N)c1cc(F)c(CNC(=O)c2ccc3c(c2)[C@@H]2O[C@H]3c3ccc(C4CC4)cc32)c(F)c1 (single isomer, unassigned) [Example 280]"
14,10,"CC(F)(F)c1ccc2c(c1)[C@H]1O[C@@H]2c2ccc(C(=O)NCc3ccc(C(=N)N)cc3)cc21 (single isomer, unassigned) [Example 281]"
15,100000,"N#Cc1cc(NC(=N)c2ccc3c(c2)[C@@H]2O[C@H]3c3ccc(-c4ccc(F)cc4F)cc32)ccc1F (single isomer, unassigned) [Example 283]"
16,6.31,"CC(C)(F)c1ccc2c(c1)[C@H]1O[C@@H]2c2ccc(C(=O)NCc3ccc(C(=N)N)cc3)cc21 (single isomer, unassigned) [Example 284]"
17,1,"C=C(C)c1ccc2c(c1)[C@H]1O[C@@H]2c2ccc(C(=O)NCc3c(F)cc(C(=N)N)cc3F)cc21 (single isomer, unassigned) [Example 285]"
18,2.45,"N=C(N)c1cc(F)c(CNC(=O)c2ccc3c(c2)[C@@H]2O[C@H]3c3ccc(-n4cccn4)cc32)c(F)c1 (single isomer, unassigned) [Example 286]"
19,123,"Cc1nc(N)cc(C(C)C)c1CNC(=O)c1ccc2c(c1)[C@@H]1O[C@H]2c2ccc(-c3c(F)ccc[n+]3[O-])cc21 (single isomer, unassigned) [Example 289]"
20,1,"N=C(N)c1ccc(CNC(=O)c2ccc3c(c2)[C@@H]2O[C@H]3c3ccc(-c4ccccc4F)cc32)c(F)c1 (single isomer, unassigned) [Example 290]"
